Test results: patent US20260250320A1, “LIPIDATED PEPTIDE INHIBITORS OF INTERLEUKIN-23 RECEPTOR” (Janssen Pharmaceutica NV, priority 2023, published 2026)
*1 amine or outer side, *2 acyl side, *3 side chain or, on linkers, in order; H or OH if unused. Where a SMILES comes first, the peptide text is derived from it. Bridges are numbered along the chain shown (N, C = ends). Side-chain parts run from the residue outwards. [ ]: non-standard residue; d: D form. The star is where a group is joined. ξ: configuration not given here. X27 = C[N+](C)(CCNC(=O)COCCOCCNC(=O)COCCOCCNC(=O)CC[C@H](NC(=O)CCCCCCCCCCCCCCCCCCC(=O)O)C(=O)O)CC(=O)*; Me3N+(CH2)2O(CH2)2O(CH2)2CO = C[N+](C)(C)CCOCCOCCC(=O)*; Biotin = O=C1N[C@H]2[C@H](CS[C@H]2CCCCC(=O)*)N1; Trp(7-Me) = Cc1cccc2c(C[C@H](N)C(=O)O)c[nH]c12; C18 diacid = O=C(O)CCCCCCCCCCCCCCCCC(=O)*; γGlu = O=C(O)[C@H](CCC(=O)[*:2])N[*:1]; 2Nal = N[C@@H](Cc1ccc2ccccc2c1)C(=O)O; AEF = NCCOc1ccc(C[C@H](N)C(=O)O)cc1; αMeT = C[C@@H](O)[C@](C)(N)C(=O)O; 3Pal = N[C@@H](Cc1cccnc1)C(=O)O; Lys(Me) = CNCCCC[C@H](N)C(=O)O; PEG4 = NCCOCCOCCOCCOCCC(=O)O; Pen = CC(C)(S)[C@H](N)C(=O)O; Thp = NC1(C(=O)O)CCOCC1; ξN = NC(=O)CC(N)C(=O)O; AEEA = NCCOCCOCC(=O)O; Sar = CNCC(=O)O

Experiments:
[1] = biological target: T1, IL-23R (Homo sapiens, UniProt Q5VWK5); assay: IL23R Reporter Assay; format: cell-based; details: HEK293 cells containing IL-23R, IL-12Rβ1 and STAT-inducible firefly luciferase reporter; 10 ng/mL IL-23 (EC90); 5 h
T1 construct: HEK293 cells containing IL-23R, IL-12Rβ1 and a firefly luciferase reporter gene driven by a STAT-inducible promoter (Promega); host or cells: HEK293
T1 sequence (Q5VWK5 24-629): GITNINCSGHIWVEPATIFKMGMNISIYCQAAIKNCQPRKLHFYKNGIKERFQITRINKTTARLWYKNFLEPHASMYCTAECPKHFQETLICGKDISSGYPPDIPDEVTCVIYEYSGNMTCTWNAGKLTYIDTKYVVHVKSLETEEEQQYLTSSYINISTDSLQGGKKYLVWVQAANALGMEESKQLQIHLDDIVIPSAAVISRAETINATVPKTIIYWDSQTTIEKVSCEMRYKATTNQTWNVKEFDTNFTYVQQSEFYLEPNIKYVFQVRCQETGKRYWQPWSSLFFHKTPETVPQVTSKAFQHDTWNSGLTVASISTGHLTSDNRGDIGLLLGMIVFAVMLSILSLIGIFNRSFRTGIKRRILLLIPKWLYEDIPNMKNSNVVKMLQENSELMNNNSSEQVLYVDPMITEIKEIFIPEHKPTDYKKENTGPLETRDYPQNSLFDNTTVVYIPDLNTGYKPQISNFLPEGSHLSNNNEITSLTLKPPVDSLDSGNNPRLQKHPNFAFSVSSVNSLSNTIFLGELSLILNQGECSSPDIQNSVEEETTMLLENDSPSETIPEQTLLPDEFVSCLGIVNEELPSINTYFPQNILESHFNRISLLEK
Procedure, shortened: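 IC50 values were fitted with a 4-parameter Hill equation to luciferase signal, scaled between IL-23-only wells (0% inhibition) and 30 μM reference inhibitor (100%). The readout was a STAT-inducible reporter in IL-23R/IL-12Rβ1 HEK293 cells, stimulated with added 10 ng/mL IL-23 (EC90) for 5 h at 37° C and developed with BioGlo.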

[2] = tested on: IL-23-stimulated phosphorylated STAT3 in peripheral blood mononuclear cells (PBMCs); assay: PBMC pSTAT3 Assay; format: cell-based; details: PBMCs from healthy donors; 30 min preincubation with peptide; IL-23 5 ng/mL for 30 min; phospho-STAT3 by MSD
Procedure, shortened: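 Phospho-STAT3 quantified by Meso Scale assay in lysates of PBMCs exposed to IL-23 (5 ng/mL, 30 min, 37 °C) after 30 min peptide pretreatment. Cells were cryopreserved donor PBMCs activated 4 days with anti-CD3 plus IL-1β (100 ng/mL) and starved ~4 h; IC50 reported.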

SMILES: CC(=O)N(C)CCCC[C@@H]1NC(=O)[C@H](Cc2c[nH]c3c(C)cccc23)NC(=O)[C@H]([C@@H](C)O)NC(=O)[C@H](CC(=O)N(C)C)NC(=O)[C@@H](NC(=O)CCOCCOCC[N+](C)(C)C)C(C)(C)SSC(C)(C)[C@@H](C(=O)N[C@@H](Cc2ccc(OCCNC(=O)C[N+](C)(C)CCNC(=O)COCCOCCNC(=O)COCCOCCNC(=O)CC[C@H](NC(=O)CCCCCCCCCCCCCCCCCCC(=O)O)C(=O)O)cc2)C(=O)N[C@@H](Cc2ccc3ccccc3c2)C(=O)NC2(C(=O)N[C@@H](CCCCN(C)C(C)=O)C(=O)N[C@@H](CC(N)=O)C(=O)N[C@@H](Cc3cccnc3)C(=O)N(C)CC(=O)N(C)C)CCOCC2)NC1=O [compound 151, cPEG3aCO-Pen(3)-N(N(Me)2)-T-7MeW-K(NMeAc)-Pen(3)-AEF(SP6PEG2PEG2gEC20OH)-2Nal-THP-K(NMeAc)-N-3Pya-Sar-CON(Me)2] ({Me3N+(CH2)2O(CH2)2O(CH2)2CO}-[Pen]D(NMe2)T[Trp(7-Me)][Lys(Me)](Ac)[Pen][AEF](X27)[2Nal][Thp][Lys(Me)](Ac)N[3Pal][Sar]-NMe2; disulfide 1-6)
- IC50 [1]: < 50 nM
- IC50 [2]: < 0.5 nM

SMILES: CC(=O)NCCCC[C@@H]1NC(=O)[C@H](Cc2c[nH]c3c(C)cccc23)NC(=O)[C@H]([C@@H](C)O)NC(=O)[C@H](CC(N)=O)NC(=O)[C@@H](NC(C)=O)C(C)(C)SSC(C)(C)[C@@H](C(=O)N[C@@H](Cc2ccc(OCCN)cc2)C(=O)N[C@@H](Cc2ccc3ccccc3c2)C(=O)NC2(C(=O)N[C@@H](CCC(=O)O)C(=O)N[C@@H](CC(N)=O)C(=O)N[C@@H](Cc3cccnc3)C(=O)N(C)CC(=O)N[C@@H](CCCCNC(=O)COCCOCCNC(=O)COCCOCCNC(=O)CC[C@H](NC(=O)CCCCCCCCCCCCCCCCC(=O)O)C(=O)O)C(N)=O)CCOCC2)NC1=O [compound 160, cPEG3aCO-r-Pen(3)-N-T-7MeW-K(Ac)-Pen(3)-AEF-2Nal-THP-E-N-3Pya-Sar-K(PEG2PEG2gEC18OH)-CONH2]
- IC50 [1]: 50 to 500 nM
- IC50 [2]: < 0.5 nM

SMILES: CC(=O)NCCCC[C@@H]1NC(=O)[C@H](Cc2c[nH]c3c(C)cccc23)NC(=O)[C@](C)([C@@H](C)O)NC(=O)C(CC(N)=O)NC(=O)[C@@H](NC(=O)[C@@H](CCCNC(=N)N)NC(C)=O)C(C)(C)SSC(C)(C)[C@@H](C(=O)N[C@@H](Cc2ccc(OCCN)cc2)C(=O)N[C@@H](Cc2ccc3ccccc3c2)C(=O)NC2(C(=O)N[C@@H](CCCCNC(=O)CCOCCOCCOCCOCCNC(=O)CCCC[C@@H]3SC[C@@H]4NC(=O)N[C@@H]43)C(=O)N[C@@H](CC(N)=O)C(=O)N[C@@H](Cc3cccnc3)C(=O)N(C)CC(=O)N[C@@H](CCCCNC(=O)COCCOCCNC(=O)COCCOCCNC(=O)CC[C@H](NC(=O)CCCCCCCCCCCCCCCCC(=O)O)C(=O)O)C(N)=O)CCOCC2)NC1=O (stereo partly drawn) [compound 56, MeCO-r-Pen(3)-N-T-7MeW-K(Ac)-Pen(3)-AEF-2Nal-THP-K(BiotinPEG4)-N-3Pya-Sar-K(PEG2PEG2gEC18OH)-CONH2] (Ac-[dR][Pen][ξN][αMeT][Trp(7-Me)]K(Ac)[Pen][AEF][2Nal][Thp]K([PEG4-Biotin])N[3Pal][Sar]K([AEEA-AEEA-γGlu-C18 diacid])-NH2; disulfide 2-7)
- IC50 [1]: < 50 nM
- IC50 [2]: < 0.5 nM

SMILES: CC(=O)NCCCC[C@@H]1NC(=O)[C@H](Cc2c[nH]c3c(C)cccc23)NC(=O)[C@H]([C@@H](C)O)NC(=O)[C@H](CC(N)=O)NC(=O)[C@@H](NC(C)=O)C(C)(C)SSC(C)(C)[C@@H](C(=O)N[C@@H](Cc2ccc(OCCN)cc2)C(=O)N[C@@H](Cc2ccc3ccccc3c2)C(=O)NC2(C(=O)N[C@@H](CCCCNC(=O)CCC(=O)N[C@H](CC(=O)O)C[N+](C)(C)C)C(=O)N[C@@H](CC(N)=O)C(=O)N[C@@H](Cc3cccnc3)C(=O)N(C)[C@@H](CCCCNC(=O)COCCOCCNC(=O)COCCOCCNC(=O)CC[C@H](NC(=O)CCCCCCCCCCCCCCCCC(=O)O)C(=O)O)C(N)=O)CCOCC2)NC1=O [compound 28, MeCO-Pen(3)-N-T-7MeW-K(Ac)-Pen(3)-AEF-2Nal-THP-K(d)-N-3Pya-NMeK(PEG2PEG2gEC18OH)-CONH2]
- IC50 [1]: 50 to 500 nM
- IC50 [2]: < 0.5 nM
